The METLIN SMRT retention time set (Domingo-Almenara et al. 2019)

Assay: gradient 5% acetonitrile 3 min, to 50% in 2 min, to 85% in 15 min, held 3 min, 100 µL/min
Conditions: column: Zorbax Extend-C18 2.1 x 50 mm; eluents: water / acetonitrile, 0.1% formic acid
Procedure, shortened: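 In both positive and negative ionization mode, a quadrupole time-of-flight mass spectrometer coupled to HPLC analyzed pure standards run in mixtures of ~100 molecules. The Zorbax Extend-C18 column (2.1 × 50 mm, 1.8 μm) was operated at 100 μL/min with water and acetonitrile, each containing 0.1% formic acid. The dead volume was 40 μL and the dwell volume 900 μL. Retention time came from adduct peaks that were computationally picked and individually inspected by hand.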

SMILES | RP-LC retention time [s]
O=c1n(Cc2ccc(F)cc2)nc2ccc(S(=O)(=O)N3CCOCC3)cn12 | 785
Cc1ccc(N2CC(c3nc(-c4cccs4)no3)CC2=O)cc1 (stereo not given) | 877
O=C(Cn1ccc2ccc(N3CCOCC3)nc21)NCc1ccc(F)cc1Cl | 912
CSc1cccc(NC(=O)CN2C(=O)CCn3nc(-c4cn(C)c5ccccc45)cc32)c1 | 902
COc1cc(OC)cc(-c2nnc(Cc3nc(-c4ccc(Cl)cc4)no3)o2)c1 | 1110
CCc1noc(NC(C)=O)c1-c1ccc(C)c(S(=O)(=O)Nc2cccc(C(F)(F)F)c2)c1 | 889
CC(C)C(=O)Nc1ccc(C(=O)NCCNS(=O)(=O)c2ccc(F)c(Cl)c2)cc1 | 720
Cc1ccc(-c2noc(Cn3ccn(-c4ccccc4C)c(=O)c3=O)n2)cc1 | 680
O=C(c1nnc(-c2ccc(S(=O)(=O)N3CCOCC3)cc2)o1)N1CCCCC1 | 785
COc1cc(CN2CC(Oc3ccc(-c4noc(-c5ccncc5)n4)cc3)C2)cc(OC)c1 | 728
O=C(O)CCc1conc1-c1cccc(F)c1 | 729
Cc1cc(C)cc(OCC(=O)Nc2nc(-c3ccccc3)cs2)c1 | 1210
COc1cc(OC)cc(-c2nc(Cn3cnc4ccccc4c3=O)no2)c1 | 871
Cc1ccc(-c2nc3ccccn3c2Nc2ccc3c(c2)OCCO3)cc1 | 690
Cc1cccc(-c2noc(-c3ccc(N4CCN(Cc5ccc6c(c5)OCO6)CC4)nc3)n2)c1 | 848
O=C(Cn1cccc(-c2nc(-c3ccc(F)cc3)no2)c1=O)Nc1ccc(Br)cc1F | 964
COc1ccc(NC(=O)c2ccc(Cl)s2)c2ccccc12 | 920
O=S(=O)(c1ccc(Cl)cc1)N1CCC(c2noc(-c3ccccc3)n2)CC1 | 1170
Cc1cccc(-c2ncccc2CNS(=O)(=O)c2ccccc2C)c1 | 725
COc1ccccc1C(=O)N1CCC2(CC1)NC(=O)c1cc(C)ccc1N2C | 732
COC(=O)c1cccc(NC(=O)NC(C)C(=O)N2CCc3ccccc32)c1 (stereo not given) | 792
Cc1ccc2c(c1)N(C(=O)Cn1cnc3c(sc4nc(-c5ccccc5)ccc43)c1=O)CCO2 | 1130
Cc1ccc(-c2nnc(SCc3cc(=O)n4oc(C)cc4n3)o2)cc1 | 759

SMILES | RP-LC retention time [s]
Cc1ccc(-n2c(=O)n(C)c(=O)c3cc(C(=O)Nc4ccc5c(c4)OCO5)cnc32)cc1 | 907
COc1ccc(-c2nc3ncccn3c2NCc2ccccc2)cc1 | 717
CCc1ccc(S(=O)(=O)N2c3ccccc3NC3=C(C(=O)CCC3)C2c2ccco2)cc1 (stereo not given) | 923
CC(C(=O)Nc1ccccc1C(F)(F)F)N1C(=O)c2ccccc2S1(=O)=O (stereo not given) | 828
COc1cccc(-n2c(=O)c3sccc3n(Cc3nc(-c4ccc(C)c(C)c4)no3)c2=O)c1 | 1160
CCC(CO)NCc1ccc(-c2ccc(Br)cc2)o1 (stereo not given) | 683
COCCNC(=O)c1cc(-c2ccc(C)c(C)c2)[nH]c1C | 772
O=C(c1ccsc1)N1CCC2(CCC2N2CCOCC2)CC1 (stereo not given) | 581
Cc1ccc2nc(C(=O)NCc3cc(F)ccc3F)cn2c1 | 655
CCc1nn(C)c(=O)c2cc(S(=O)(=O)NCc3ccccc3Cl)cn12 | 893
COc1ccc(S(=O)(=O)N2CCc3nn(CC4CC4)c(=O)n3CC2)cc1Cl | 786
Cc1sc(NC(=O)c2ccccc2)c(C(=O)NCCN(C)C)c1C | 677
Cc1ccc(Nc2c(-c3ccc(N4CCOCC4)cc3)nc3cccc(C)n23)cc1 | 746
CCOc1ccc(N2C=C(C(=O)OC)S(=O)(=O)c3cc(F)ccc32)cc1 | 924
C/C(=N\Nc1nc2ccccc2s1)c1ccncn1 | 895
Brc1ccc(-c2nc(-c3ccc4nncn4c3)no2)cc1 | 913
CCOc1ccccc1CN1CCc2nc(Nc3ccc(F)cc3)ncc2C1 | 616
O=C(Cc1c[nH]c2ncccc12)NCc1cccc(Br)c1 | 647
Cc1ccc(-c2cn3ccn(-c4cccc(F)c4)c(=O)c3n2)cc1C | 873
Cc1cccc(Cn2cc(C(=O)O)c3ccccc3c2=O)c1 | 857
O=C([C@@H]1C[C@H](F)CN1S(=O)(=O)c1ccc(F)cc1F)N1CCOCC1 | 692
Cc1cc(C(=O)NCc2ccsc2)no1 | 700

Results, then the molecule that gave them:

RP-LC retention time [s] | SMILES
663 | CNC(=O)C1CCCN(c2nc3ncn(CC(=O)Nc4ccccc4C(F)(F)F)c(=O)c3s2)C1 (stereo not given)
762 | Cc1oc2ccn(Cc3ccc(F)cc3)c(=O)c2c1C(=O)NCCN(C)C1CCCCC1
1000 | CCOc1ccc(C(=O)N2CCN(c3ccc(=O)n(-c4ccc(C(C)C)cc4)n3)CC2)cc1
639 | Cc1cccc(-c2nc3ccccn3c2NC(=O)NC2CCCC2)c1
627 | Cc1ccc(-n2c(N3CCCC(C(=O)NCc4ccncc4)C3)nc3ccsc3c2=O)cc1 (stereo not given)
868 | O=C(NC1CC1)c1ccc(OCC2CCN(C(=O)Cc3ccccc3Cl)CC2)cc1
560 | CCOC(=O)c1cnc2ccc(OCC)cc2c1NCCN(C)C
585 | CC(C)NC(=O)Cn1c(C2CCCO2)nc2ccccc21 (stereo not given)
557 | CN(C)C[C@@H]1CN(c2ccncn2)C[C@H]1NC(=O)c1nccc2ccccc12
682 | COc1cccc2c(Nc3ccc(N(C)C)cc3)cc(C(=O)N3CCSCC3)nc12
764 | Cc1cc(F)ccc1NC(=O)CN1C(=O)NC2(CCCCC2)C1=O
767 | Cc1ccc(NC(=O)Nc2ccccc2)c(=O)n1CC(=O)N1CCCC1
884 | CCN(CC)S(=O)(=O)c1ccc(NC(=O)N2CCCC(C(=O)Nc3ccc(OC)cc3)C2)s1 (stereo not given)
605 | CCOC(=O)c1cnc(N2CCN(Cc3ccc4c(c3)OCO4)CC2)[nH]c1=O
914 | CCc1noc(NC(C)=O)c1-c1ccc(C)c(S(=O)(=O)NCc2ccccc2Cl)c1
724 | O=C(c1nc(-c2cccc(F)c2)n2c1CCCCC2)N1CCN(c2ncccn2)CC1
930 | CCCn1c(=O)c(C)nc2cc(-c3noc(Cc4ccc(OC)c(OC)c4)n3)ccc21
819 | CCc1nc2c(NC(=O)c3ccc(OC)cc3)cccn2n1
615 | Cc1noc(CNC(=O)C2CCN(C(=O)NCc3ccc(F)cc3)CC2)n1
814 | O=C(CCn1c(N2CCCC2)nc2ccsc2c1=O)N1CCN(c2ccccc2)CC1
745 | CCc1ccc(C2=C(C)C(N3CCCN(C(C)=O)CC3)=NS2(=O)=O)cc1
790 | c1cc2nncn2nc1NC1CCCCC1
674 | Cc1ccc(-c2cc(C(=O)N3CCN(c4ccccn4)CC3)nn2C2CCS(=O)(=O)C2)cc1C (stereo not given)

RP-LC retention time [s] | SMILES
1010 | CCOC(=O)c1nc(N(C)c2ccccc2CC)c2ccccc2n1
1270 | CN(C)S(=O)(=O)c1ccc(-c2nnc(C(=O)NCCN3CCOCC3)o2)cc1
799 | CCOC(=O)c1[nH]c(C)c(CCC(=O)N2CCC(C(=O)NCc3ccc(OC)cc3OC)CC2)c1C
838 | Cc1ccc(NC(=O)C2CCN(S(=O)(=O)c3cn(C(C)C)cn3)CC2)c(Br)c1
963 | CC1CCN(S(=O)(=O)N2CCCC(C(=O)Nc3ccccc3C(=O)c3ccccc3)C2)CC1 (stereo not given)
565 | O=C(NC1CCN(Cc2ccccc2)CC1)c1csc(-c2ccc(N3CCCC3)nc2)n1
779 | Cc1nnc([C@@H]2CC(F)(F)CN2C(=O)COc2ccc(Cl)cc2)o1
1120 | COc1cccc(S(=O)(=O)N2CCC(c3noc(-c4ccccc4)n3)CC2)c1
626 | CC(C)(C)NCC(O)COc1nsnc1N1CCOCC1 (stereo not given)
584 | CCOC(=O)c1nc(NCCN2CCOCC2)c2ccccc2n1
706 | COCCNC(=O)N1CCCN(C2=NS(=O)(=O)C(c3cccc(Cl)c3)=C2C)CC1
584 | COc1ccc(Cl)cc1S(=O)(=O)N1CCC(CN2CCCCC2)CC1
1080 | CCOc1ccc(N2CC(c3nc(-c4ccc(Cl)cc4)no3)CC2=O)cc1 (stereo not given)
603 | Cc1ccc2c(c1)N(C(=O)CCC(=O)NCCCN1CCN(C3CCCCC3)CC1)CC(C)O2 (stereo not given)
903 | Cc1cc(C)cc(NC(=O)C2CCN(S(=O)(=O)c3ccc4c(c3)NC(=O)C(C)O4)CC2)c1 (stereo not given)
638 | COc1c(C)cnc(Cn2cnc3c(Cl)nc(N)nc32)c1C
752 | CCCCN(CC)C(=O)C1CCCN(c2nccc(C)n2)C1 (stereo not given)
931 | CCC(C)NC(=O)c1sc(-c2cn(C(C)C)c3ncccc23)nc1C (stereo not given)
770 | CCSc1nnc(-c2nn(C)c3c2CN(C(=O)c2ccc(C)cc2)CC3)n1C
876 | Cc1ccc2c(c1)N(Cc1ccccc1)N=C(C(=O)N1CCCC1)S2(=O)=O
711 | O=C(NCc1ccco1)c1ncoc1-c1ccccc1C(=O)N1CCCC1
627 | O=C(Cn1c(=O)n(C2CCCCC2)c2ncccc21)NCCN1CCOCC1
